Source: patent publication US20250049036A1 (priority 2021, published 2025)

Experiments:
[1] = test system: Parastagonospora nodorum; test: Parastagonospora nodorum (PARANO) spore growth inhibition in liquid medium, 96-well microtiter plate, OD 600; type: cell-based; conditions: spore suspension in PDB liquid medium, 18° C., 5-6 days, OD at 600, read-out: control compared to the untreated check
How it was run: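 Read-out is percent growth inhibition from OD at 600 after 5-6 days at 18° C. Compounds, dissolved in DMSO, were diluted in potato dextrose broth and combined in equal volume with a 10^5 spores/ml suspension of PARANO.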

[2] = test system: Phytophthora infestans; test: whole plant or invertebrate; type: in vivo, Phytophthora infestans on tomato; conditions: in Solanum lycopersicum, read-out: control (efficacy, disease severity) compared to the untreated check
[3] = test system: Venturia Inequalis; test: Venturia inequalis (VENTIN) spore growth inhibition in liquid medium, 96-well microtiter plate, OD 600; type: cell-based; conditions: spore suspension in PDB liquid medium, 18° C., 15-18 days, OD at 600, read-out: control compared to the untreated check
Procedure: Potato dextrose (PDB) liquid medium containing a VENTIN (10^5 spores/ml) spore suspension was prepared. For the inhibition assay, each test compound was solved in dimethyl sulfoxide. 100 μl of the test compound in media-solution was added to a 96-well microtiter plate, consequently, the same volume (100 μl) of spore suspension was added to the well making the final test concentrations and the treated plate was incubated at 18° C. for 15-18 days. The growth inhibition was evaluated by measuring the OD at 600. Percent inhibition was calculated with the below formula: […]

[4] = test system: Alternaria solani; test: Alternaria solani (early blight of tomato/potato) mycelial radial growth on potato dextrose agar; type: cell-based; conditions: 168 h, 25° C., seven days, read-out: control compared to the untreated check
Procedure: (§1) The compounds were dissolved in 0.3% dimethyl sulfoxide and then added to potato dextrose agar medium just prior to dispensing it into petri dishes. 5 mL medium, with the compound in the desired concentration, was dispensed into 60 mm sterile petri-plates. After solidification, each plate was seeded with a 5 mm size mycelial disc taken from the periphery of an actively growing virulent culture plate. The plates were incubated in growth chambers at 25° C. temperature and 60% relative humidity for seven days and the radial growth was measured and compared to the one of the untreated control.

[5] = test system: Phakopsora pachyrhizi; test: Phakopsora pachyrhizi test on soybean, preventive, greenhouse; type: in vivo; conditions: preventive spray on soybean, inoculated one day after treatment, read-out: control (efficacy, disease severity) compared to the untreated check
How it was run: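 Preventive protocol: plants inoculated with a 2×10^5 P. pachyrhizi conidial suspension one day after spray application at the stated rate, then incubated at 22-24 °C and 80-90% RH. Compound was applied from 2% DMSO/acetone diluted in emulsified water.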

[6] = test system: Pyricularia oryzae; test: microbe, parasite or virus in culture; type: cell-based; conditions: 168 h, read-out: control compared to the untreated check
[7] = test system: Botrytis cinerea; test: Botrytis cinerea liq. (BOTRCI) spore growth inhibition in liquid medium, 96-well microtiter plate, OD 405 nm; type: cell-based; conditions: spore suspension in YBA liquid medium, 22° C., 5-6 days, OD at 405 nm, read-out: control compared to the untreated check
How it was run: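 Spore suspension of B. cinerea (10^4 spores/ml) in YBA liquid medium mixed 1:1 with compound diluted from DMSO. Incubated at 22° C. for 5-6 days. Growth read as OD 405 nm; percent inhibition derived from treatment, untreated-control and blank readings.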

[8] = test system: Alternaria solani; test: Alternaria solani test in tomato, preventive, greenhouse; type: in vivo; conditions: preventive spray on tomato, inoculated one day after treatment, read-out: control (efficacy, disease severity) compared to the untreated check
Procedure: The respective compound was dissolved in 2% dimethyl sulfoxide/acetone and then mixed with water containing an emulsifier to the calibrated spray volume of 30 mL. Each spray solution was poured into a spray bottle for further application.
To test the preventive activity of a compound, healthy young tomato plants, raised in the greenhouse, were sprayed with the active compound preparation at the stated application rate inside the spray cabinets using hollow cone nozzles. One day after treatment, the plants were inoculated with a spore suspension containing 0.24×10^6 Alternaria solani inoculum. The inoculated plants were then kept in a greenhouse chamber at 22-24° C. temperature and 90-95% relative humidity for disease expression.
A visual assessment of the compound's performance was carried out by rating the disease severity (0 100% scale) on treated plants 3, 7, 10 and 15 days after application. Efficacy (% control) of the compound was calculated by comparing the disease rating in the treatment with the one of the untreated control. The treated plants were also assessed for plant damage by recording symptoms like necrosis, chlorosis and stunting.

[9] = test system: Botrytis cinerea; test: Botrytis cinerea test on tomato, preventive, greenhouse; type: in vivo; conditions: preventive spray on bean/chili plants (heading: tomato), inoculated one day after treatment, read-out: control (efficacy, disease severity) compared to the untreated check
[10] = test system: Botrytis cinerea; test: Botrytis cinerea (gray mold) mycelial radial growth on potato dextrose agar; type: cell-based; conditions: 168 h, 22° C., seven days, read-out: control compared to the untreated check
Procedure: as §1, with “22°” for “25°”, “90%” for “60%”

[11] = test system: Phytophthora infestans; test: microbe, parasite or virus in culture; type: cell-based; conditions: 168 h, read-out: control compared to the untreated check
[12] = test system: Colletotrichum capsici; test: Colletotrichum capsici (anthracnose) mycelial radial growth on potato dextrose agar; type: cell-based; conditions: Colletotrichum truncatum, 168 h, 25° C., seven days, read-out: control compared to the untreated check
How it was run: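 Compounds in 0.3% DMSO were mixed into potato dextrose agar, and each plate was seeded with a 5 mm mycelial disc from an actively growing culture. Plates were incubated at 25° C and 60% relative humidity for seven days. Radial growth was compared with untreated control.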

Cn1ccc2cc(C(=O)NC(C)(C)Cc3ccc(Cl)cc3F)cnc21 [Compound 47, N-(1-(4-chloro-2-fluorophenyl)-2-methylpropan-2-yl)-1-methyl-1H-pyrrolo[2,3-b]pyridine-5-carboxamide]
≥ 70%: inhibition of growth at 300 ppm [1] | pest or weed control at 500 ppm [2] | inhibition of growth at 300 ppm [3] | inhibition of growth at 300 ppm [4] | pest or weed control at 500 ppm [5] | inhibition of growth at 300 ppm [6]

Cn1ccc2cc(C(=O)NC(C)(C)Cc3cccc(C(F)(F)F)c3)cnc21 [Compound 14, 1-methyl-N-(2-methyl-1-(3-(trifluoromethyl)phenyl)propan-2-yl)-1H-pyrrolo[2,3-b]pyridine-5-carboxamide]
≥ 70%: inhibition of growth at 300 ppm [4] | inhibition of growth at 300 ppm [7]

Cn1ccc2cc(C(=O)NC(C)(C)Cc3ccc(OC(F)(F)F)cc3)cnc21 [Compound 19, 1-methyl-N-(2-methyl-1-(4-(trifluoromethoxy)phenyl)propan-2-yl)-1H-pyrrolo[2,3-b]pyridine-5-carboxamide]
≥ 70%: pest or weed control at 500 ppm [5] | pest or weed control at 500 ppm [8] | pest or weed control at 500 ppm [9]

CCC(O)(CC)C(NC(=O)c1cnc2c(ccn2C)c1)c1ccc(F)cc1 (stereo not shown) [Compound 131, N-(2-ethyl-1-(4-fluorophenyl)-2-hydroxybutyl)-1-methyl-1H-pyrrolo[2,3-b]pyridine-5-carboxamide]
≥ 70%: pest or weed control at 500 ppm [5] | pest or weed control at 500 ppm [8] | inhibition of growth at 300 ppm [6]

CC(C)CC(C)(Cc1ccccc1)NC(=O)c1cnc2c(c1)c(Br)cn2C (stereo not shown) [Compound 51, 3-bromo-N-(2,4-dimethyl-1-phenylpentan-2-yl)-1-methyl-1H-pyrrolo[2,3-b]pyridine-5-carboxamide]
≥ 70%: pest or weed control at 500 ppm [5] | pest or weed control at 500 ppm [8] | inhibition of growth at 300 ppm [6]

C=C(C)CC(C)(Cc1ccccc1F)NC(=O)c1cnc2cc[nH]c2c1 (stereo not shown) [Compound 144, N-(1-(2-fluorophenyl)-2,4-dimethylpent-4-en-2-yl)-1H-pyrrolo[3,2-b] pyridine-6-carboxamide]
≥ 70%: inhibition of growth at 300 ppm [1] | pest or weed control at 500 ppm [2] | inhibition of growth at 300 ppm [10] | inhibition of growth at 300 ppm [3] | inhibition of growth at 300 ppm [11] | inhibition of growth at 300 ppm [4] | pest or weed control at 500 ppm [5] | inhibition of growth at 300 ppm [7] | inhibition of growth at 300 ppm [12] | pest or weed control at 500 ppm [9]

Cn1ccc2cc(C(=O)NC3(Cc4ccccc4)CCCC3)cnc21 [Compound 10, N-(1-benzylcyclopentyl)-1-methyl-1H-pyrrolo[2,3-b]pyridine-5-carboxamide]
≥ 70%: inhibition of growth at 300 ppm [1] | pest or weed control at 500 ppm [2] | inhibition of growth at 300 ppm [11] | inhibition of growth at 300 ppm [4] | pest or weed control at 500 ppm [5] | inhibition of growth at 300 ppm [12]

Cn1ccc2cc(C(=O)NC(C)(C)Cc3ccccc3F)cnc21 [Compound 13, N-(1-(2-fluorophenyl)-2-methylpropan-2-yl)-1-methyl-1H-pyrrolo[2,3-b]pyridine-5-carboxamide]
≥ 70%: inhibition of growth at 300 ppm [1] | inhibition of growth at 300 ppm [11] | inhibition of growth at 300 ppm [4] | inhibition of growth at 300 ppm [7] | inhibition of growth at 300 ppm [12] | inhibition of growth at 300 ppm [6]

CC(C)CC(C)(Cc1ccccc1)NC(=O)c1cnc2[nH]ccc2c1 (stereo not shown) [Compound 28, N-(2,4-dimethyl-1-phenylpentan-2-yl)-1H-pyrrolo[2,3-b] pyridine-5-carboxamide]
≥ 70%: inhibition of growth at 300 ppm [1] | inhibition of growth at 300 ppm [11] | inhibition of growth at 300 ppm [4] | pest or weed control at 500 ppm [5] | inhibition of growth at 300 ppm [12]

Cn1ccc2cc(C(=O)NC(C)(C)Cc3ccccc3)cnc21 [Compound 1, 1-methyl-N-(2-methyl-1-phenylpropan-2-yl)-1H-pyrrolo[2,3-b]pyridine-5-carboxamide]
≥ 70%: inhibition of growth at 300 ppm [4] | pest or weed control at 500 ppm [5] | inhibition of growth at 300 ppm [12] | inhibition of growth at 300 ppm [6] | pest or weed control at 500 ppm [9]

Cn1ccc2cc(C(=O)NC(C)(C)Cc3ccccc3Br)cnc21 [Compound 26]
≥ 70%: inhibition of growth at 300 ppm [1] | pest or weed control at 500 ppm [5] | pest or weed control at 500 ppm [8]

Cn1ccc2cc(C(=O)NC(C)(C)Cc3cccc(F)c3)cnc21 [Compound 21, N-(1-(3-fluorophenyl)-2-methylpropan-2-yl)-1-methyl-1H-pyrrolo[2,3-b]pyridine-5-carboxamide]
≥ 70%: pest or weed control at 500 ppm [5] | pest or weed control at 500 ppm [8] | inhibition of growth at 300 ppm [12] | inhibition of growth at 300 ppm [6]

Cn1ccc2cc(C(=O)NC(C)(C)Cc3cc(F)cc(F)c3)cnc21 [Compound 15, N-(1-(3,5-difluorophenyl)-2-methylpropan-2-yl)-1-methyl-1H-pyrrolo[2,3-b]pyridine-5-carboxamide]
≥ 70%: pest or weed control at 500 ppm [8]

Cn1cc(Cl)c2cc(C(=O)NC(C)(C)COC(=O)c3cccc(F)c3)cnc21 [Compound 153, 2-(3-chloro-1-methyl-1H-pyrrolo[2,3-b]pyridine-5-carboxamido)-2-methylpropyl 3-fluorobenzoate]
≥ 70%: inhibition of growth at 300 ppm [1] | pest or weed control at 500 ppm [8] | pest or weed control at 500 ppm [9]

Cn1cc(C2CC2)c2cc(C(=O)NC(C)(C)Cc3ccccc3Cl)cnc21 [Compound 85, N-(1-(2-chlorophenyl)-2-methylpropan-2-yl)-3-cyclopropyl-1-methyl-1H-pyrrolo[2,3-b]pyridine-5-carboxamide]
≥ 70%: inhibition of growth at 300 ppm [1] | pest or weed control at 500 ppm [2] | inhibition of growth at 300 ppm [4] | pest or weed control at 500 ppm [5] | inhibition of growth at 300 ppm [6]

C=C(C)CC(C)(COc1ccc(F)cc1)NC(=O)c1cc2cc[nH]c2nc1C (stereo not shown) [Compound 128, N-(1-(4-fluorophenoxy)-2,4-dimethylpent-4-en-2-yl)-6-methyl-1H-pyrrolo[2,3-b]pyridine-5-carboxamide]
≥ 70%: pest or weed control at 500 ppm [8] | pest or weed control at 500 ppm [9]

Cn1cc(Cl)c2cc(C(=O)NC(C)(C)Cc3ccccc3F)cnc21 [Compound 59, 3-chloro-N-(1-(2-fluorophenyl)-2-methylpropan-2-yl)-1-methyl-1H-pyrrolo[2,3-b]pyridine-5-carboxamide]
≥ 70%: pest or weed control at 500 ppm [5] | pest or weed control at 500 ppm [8] | inhibition of growth at 300 ppm [6]
